From paper PMC3579193, “Elucidation of relaxin-3 binding interactions in the extracellular loops of RXFP3” (Frontiers in Endocrinology, 2013)
Ends that are not written are not given here.

Key:
[1] = biological target: HA-RXFP3 E245A (human) (UniProt Q9NSD7); experiment: europium-labelled ligand binding on cells; specific binding of 5 nM Eu-H3/I5 to transfected HEK-293T cells in 96 well optiplates; non-specific binding with 1 uM unlabeled H3 relaxin; expressed as ratio of specific binding to cell surface expression, normalized to HA-RXFP3
[2] = biological target: HA-RXFP3 E77A (human) (UniProt Q9NSD7); experiment: as above
[3] = system: rats; settings: central administration, ref McGowan et al., 2005, 2006, Ganella et al., 2012b; cited from earlier work
From the text: Relaxin-3 is involved in a wide range of behaviors, including feeding, stress responses, arousal, and cognitive processes ([Smith et al., 2011]). […] Relaxin-3 neuronal activity and production of relaxi ...

[4] = system: RXFP4; settings: ref Liu et al., 2003a; cited from earlier work
From the text: Relaxin-3 is a member of the relaxin peptide family. Peptides from this family activate relaxin family peptide (RXFP) receptors, which are Type I or Class A G protein-coupled receptors (GPCRs). […] The rela ... || Based on the hypothesis that coevolution of relaxin-3 and RXFP3 occurred in vertebrates and that residues important for relaxin-3 binding and activation should therefore be conserved we performed multiple sequence alignments of all vertebrate RXFP3 sequences. […] Figure 1A highlights sequence alignments of representative mammalian species (human, chimpanzee, rat, mouse, platypus) and representative lower vertebrate species (Frog and Zebrafish) from this analysis compa ... || Based on the hypothesis that coevolution of relaxin-3 and RXFP3 occurred in vertebrates, and in the knowledge that the key relaxin-3 B-chain residues are conserved across all vertebrate species ([Wilkinson et al., 2005b]), we performed multiple sequence alignments of all vertebrate RXFP3 sequences to identify highly conserved residues in the ELs and NT domain that may be involved in relaxin-3 binding. […] We have focused on glutamic (E) and aspartic acid (D) residues ...

[5] = system: RXFP1; settings: ref Sudo et al., 2003; cited from earlier work
From the text: Relaxin-3 is a member of the relaxin peptide family. Peptides from this family activate relaxin family peptide (RXFP) receptors, which are Type I or Class A G protein-coupled receptors (GPCRs). […] The rela ...

[6] = system: chimeric RXFP3/4 receptors; settings: ref Zhu et al., 2008; cited from earlier work
From the text: (§1) Although residues in the peptides have been identified as critical for activity, the specific residues in the receptors that are interacting with these are unknown. […] In addition they determined that sites in transmembrane (TM) 2, 3, and 5 are involved in receptor activation by INSL5 ([Zhu et al., 2008]). None of the receptor chimeras resulted ...

[7] = system: RXFP4 over RXFP3; settings: ref Zhu et al., 2008; cited from earlier work
From the text: as §1

## mono-Eu-labeled relaxin-3 agonist H3 relaxin B-chain, INSL5 A chain (H3/I5) (ligand)
[1]
  decrease in specific binding against HA-RXFP3: 50%
[2]
  loss of specific binding against HA-RXFP3: 50%

## relaxin-3: highly conserved neuropeptide, member of the relaxin peptide family; endogenous ligand of RXFP3
[3]
  effect on feeding: increase feeding in rats
[4]
  binding to and activation of RXFP4: able to bind to and activate both RXFP4
[5]
  binding to and activation of RXFP1: able to bind to and activate both RXFP4 ([Liu et al., 2003a]) and RXFP1
[6]
  effect of receptor chimeras on binding or activity: None of the receptor chimeras resulted in appreciable changes in relaxin-3 binding or activity

## INSL5: related insulin-like peptide-5, ligand of RXFP4 (Insulin-like peptide INSL5 B … KESVRLCGLEYIRTVIYICASSRW; Insulin-like peptide INSL5 A … QDLQTLCCTDGCSMTDLSALC; ends and bridges not checked; cysteine pairing not given here; UniProt Q9Y5Q6 23-46; Q9Y5Q6 115-135, looked up)
[7]
  selectivity: selectivity of INSL5 for RXFP4 over RXFP3
